Reference: patent publication US10213415B2, “Compounds as opioid receptor modulators” (JANSSEN PHARMACEUTICA NV, priority 2004, dated 2019)

Assays:
rats = assay: Visceral Hyperalgesia Testing (colorectal balloon distention following zymosan); format: in vivo, rat; settings: 30 mg/kg i.p., 5 rats, repeated distentions of 40 mmHg
Protocol: Method: Rats were chronically instrumented with EMG electrodes in the muscles of the anterior abdominal wall. Distention of an intracolonic balloon, using a barostat apparatus, evoked increases in the EMG recordings that are related to the pressure. Control responses are compared with repeat stimulation 4 hours after zymosan is administered to the colon (FIG. 1).

delta opioid receptor = target: T1, delta opioid receptor (Rattus norvegicus, UniProt P33533); assay: Rat Brain Delta Opioid Receptor Binding Assay-Version 1a ([3H]naltrindole); settings: rat forebrain membranes, 0.1 nM [3H]naltrindole; margin of error 10-20%; read-out: r Ki δ Ver. 1a
T1 construct: from tissue; host or cells: forebrain of male Wistar rats
T1 sequence (P33533 whole entry): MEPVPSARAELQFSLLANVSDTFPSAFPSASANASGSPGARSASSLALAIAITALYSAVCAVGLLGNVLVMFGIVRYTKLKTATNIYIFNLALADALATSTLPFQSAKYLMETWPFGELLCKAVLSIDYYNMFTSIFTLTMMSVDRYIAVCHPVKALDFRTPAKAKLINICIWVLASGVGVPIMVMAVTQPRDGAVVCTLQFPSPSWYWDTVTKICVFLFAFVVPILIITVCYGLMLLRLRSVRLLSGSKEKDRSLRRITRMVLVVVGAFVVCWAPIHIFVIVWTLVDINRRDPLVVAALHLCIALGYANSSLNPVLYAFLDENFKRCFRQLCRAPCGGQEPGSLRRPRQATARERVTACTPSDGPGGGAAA
Protocol: Male, Wistar rats (150-250 g, VAF, Charles River, Kingston, N.Y.) were killed by cervical dislocation, and their brains removed and placed immediately in ice-cold Tris HCl buffer (50 mM, pH 7.4). The forebrains were separated from the remainder of the brain by a coronal transection, beginning dorsally at the colliculi and passing ventrally through the midbrain-pontine junction. After dissection, the forebrains were homogenized in Tris buffer in a Teflon®-glass homogenizer. The homogenate was diluted to a concentration of 1 g of forebrain tissue per 80 mL Tris and centrifuged at 39,000×g for 10 min. The pellet was resuspended in the same volume of Tris buffer containing 5 mM MgCl2 with several brief pulses from a Polytron homogenizer. This particulate preparation was used for the delta opioid binding assay. Following incubation with 0.1 nM of the delta selective ligand [^3H]naltrindole at 25° C. for 2.5 h in a 96-well plate with total 1 mL, the plate contents were filtered through Wallac filtermat B sheets on a Tomtec 96-well harvester. The filters were rinsed three times with 2 mL of 10 mM HEPES (pH 7.4), and dried in a microwave oven. To each sample area, Betaplate Scint scintillation fluid (LKB) was added and the resulting radioactivity quantified on a LKB (Wallac) 1205 BetaPlate liquid scintillation counter. Kd and Ki values were calculated using the GraphPad PRISM data analysis program.

| Structure (SMILES) | hyperalgesic response to colorectal balloon distention following zymosan (rats) | Ki (delta opioid receptor) [nM] |
| --- | --- | --- |
| COc1ccc(CN(C(=O)[C@@H](N)Cc2c(C)cc(C(N)=O)cc2C)[C@@H](C)c2nc(-c3ccccc3)c[nH]2)cc1C(=O)O [Cpd 18] | blocked the hyperalgesic response |  |
| Cc1cc(O)cc(C)c1C[C@H](N)C(=O)N(Cc1cccc(C(=O)O)c1)[C@@H](C)c1nc(-c2ccccc2)c[nH]1 [Cpd 48] |  | 0.24 |
| COC(=O)c1ccc(CN(C(=O)[C@@H](N)Cc2c(C)cc(C(N)=O)cc2C)[C@@H](C)c2nc(-c3ccccc3)c[nH]2)o1 [Cpd 257] |  | 14 |
| COC(=O)c1ccc(CN(C(=O)[C@@H](N)Cc2ccc(C(N)=O)cc2)[C@@H](C)c2nc(-c3ccccc3)c[nH]2)o1 [Cpd 303] |  | 24.5 |
